Laboratory results published in patent US4178436A, “Semi-synthetic oleandomycin derivatives-C8 modifications” (Pfizer Inc., priority 1978, dated 1979).
Converted amounts (≈) assume the structure as drawn.

Legend:
Staph. aureus 01A005 = test: protection against in vivo infection in mice infected with Staph. aureus 01A005 (test procedure of Retsema); conditions: subcutaneous or oral administration to mice infected with Staph. aureus 01A005; compared with natural oleandomycin
Description: The ability of some compounds of the present invention to protect against in vivo infections was determined by subcutaneous or oral administration to mice infected with Staph. aureus 01A005. Using the test procedure of Retsema [J. A. Retsema, et al., Antimicr.

Neisseriae Sicca 66C001 = test: in vitro minimum inhibitory concentration (MIC) method of Ericsson and Sherris; type: cell-based; conditions: Neisseriae Sicca 66C001, Gram-negative
From the text: (§1) The oleandomycin compounds of the present invention are effective in inhibiting the growth of microorganisms, especially Gram-positive microorganisms. That is, the high activity against Gram-positive organisms in general shown by these compounds can be contrasted in some respects with the lower activity show against certain especially virulent and well known Gram-negative organisms. The following table illustrates the in vitro antibiotic spectrum of the compound of the instant invention. The tests were run according to the "minimum inhibitory concentration" (MIC) method of Ericsson and Sherris [H. M. Ericsson and J. C. Sherris, Acta. Pathol. Microbiol. Scand. Suppl., 217B, 64 (1971)].

E.coli 51A226 = test: as above; type: cell-based; conditions: Escherichia coli; E.coli 51A226, Gram-negative
From the text: as §1

Salm.typhm. 58D009 = test: as above; type: cell-based; conditions: Salm.typhm. 58D009, Gram-negative
From the text: as §1

Staph.aureus 01A400R = test: as above; type: cell-based; conditions: Staphylococcus aureus, Gram-positive
From the text: as §1

Strep.py 02C203 = test: as above; type: cell-based; conditions: Strep.py 02C203, Gram-positive
From the text: as §1

Staph.aureus 01A005 = test: as above; type: cell-based; conditions: Staphylococcus aureus; Staph.aureus 01A005, Gram-positive
From the text: as §1

Klebsiella pn. 53A009 = test: as above; type: cell-based; conditions: Klebsiella pn. 53A009, Gram-negative
From the text: as §1

| SMILES | MIC (Neisseriae Sicca 66C001) [µg/mL] | MIC (E.coli 51A226) [µg/mL] | MIC (Salm.typhm. 58D009) [µg/mL] | MIC (Staph.aureus 01A400R) [µg/mL] | MIC (Strep.py 02C203) [µg/mL] | MIC (Staph.aureus 01A005) [µg/mL] | MIC (Klebsiella pn. 53A009) [µg/mL] | protection against infection (Staph. aureus 01A005) |
| --- | --- | --- | --- | --- | --- | --- | --- | --- |
| CO[C@H]1C[C@H](O[C@H]2[C@H](C)[C@@H](O[C@@H]3O[C@H](C)C[C@H](N(C)C)[C@H]3OC(C)=O)[C@@H](C)C[C@@H](CO)C(=O)[C@H](C)[C@@H](O)[C@@H](C)[C@@H](C)OC(=O)[C@@H]2C)O[C@@H](C)[C@@H]1O [Example 2, 8,8a-Deoxy-8-hydroxymethyl-2'-acetyloleandomycin] | 0.39 (≈ 0.533 µM) | > 200 | > 200 | 12.5 (≈ 17.1 µM) | 1.56 (≈ 2.13 µM) | 6.25 (≈ 8.54 µM) | > 200 | protection against infection which was comparable to natural oleandomycin |
| CO[C@H]1C[C@H](O[C@H]2[C@H](C)[C@@H](O[C@@H]3O[C@H](C)C[C@H](N(C)C)[C@H]3OC(C)=O)[C@@H](C)C[C@@H](COS(=O)(=O)c3ccc(C)cc3)C(=O)[C@H](C)[C@@H](O)[C@@H](C)[C@@H](C)OC(=O)[C@@H]2C)O[C@@H](C)[C@@H]1O [Example 5, 8,8a-Deoxy-8-tosyloxymethyl-2'-acetyloleandomycin] | 3.12 (≈ 3.52 µM) | > 200 | > 200 | > 200 | 3.12 (≈ 3.52 µM) | 100 (≈ 113 µM) | > 200 | – |
| CO[C@H]1C[C@H](O[C@H]2[C@H](C)[C@@H](O[C@@H]3O[C@H](C)C[C@H](N(C)C)[C@H]3O)[C@@H](C)C[C@@H](CCl)C(=O)[C@H](C)[C@@H](O)[C@@H](C)[C@@H](C)OC(=O)[C@@H]2C)O[C@@H](C)[C@@H]1OC(C)=O [Example 13, 8,8a-Deoxy-8-chloromethyl-4'-acetyloleandomycin] | ≤ 0.1 | 200 (≈ 267 µM) | > 200 | 50 (≈ 66.6 µM) | 1.56 (≈ 2.08 µM) | 3.12 (≈ 4.16 µM) | > 200 | protection against infection which was comparable to natural oleandomycin |
| CO[C@H]1C[C@H](O[C@H]2[C@H](C)[C@@H](O[C@@H]3O[C@H](C)C[C@H](N(C)C)[C@H]3O)[C@@H](C)C[C@@H](CN(C)C)C(=O)[C@H](C)[C@@H](O)[C@@H](C)[C@@H](C)OC(=O)[C@@H]2C)O[C@@H](C)[C@@H]1OC(C)=O [Example 14, 8,8a-Deoxy-8-dimethylaminomethyl-4"-acetyloleandomycin] | 1.56 (≈ 2.06 µM) | > 200 | > 200 | 50 (≈ 65.9 µM) | 50 (≈ 65.9 µM) | 25 (≈ 32.9 µM) | > 200 | – |
| CO[C@H]1C[C@H](O[C@H]2[C@H](C)[C@@H](O[C@@H]3O[C@H](C)C[C@H](N(C)C)[C@H]3O)[C@@H](C)C[C@@H](CNC(C)=O)C(=O)[C@H](C)[C@@H](O)[C@@H](C)[C@@H](C)OC(=O)[C@@H]2C)O[C@@H](C)[C@@H]1OC(C)=O [Example 19, 8,8a-Deoxy-8-(N-acetyl)aminomethyl-4"-acetyloleandomycin] | – | – | – | – | – | – | – | protection against infection which was comparable to natural oleandomycin |

Continued, in another order:

| MIC (Neisseriae Sicca 66C001) [µg/mL] | MIC (E.coli 51A226) [µg/mL] | MIC (Salm.typhm. 58D009) [µg/mL] | MIC (Staph.aureus 01A400R) [µg/mL] | MIC (Strep.py 02C203) [µg/mL] | MIC (Staph.aureus 01A005) [µg/mL] | MIC (Klebsiella pn. 53A009) [µg/mL] | SMILES | protection against infection (Staph. aureus 01A005) |
| --- | --- | --- | --- | --- | --- | --- | --- | --- |
| 0.2 (≈ 0.264 µM) | > 200 | > 200 | 12.5 (≈ 16.5 µM) | 3.1 (≈ 4.1 µM) | 3.1 (≈ 4.1 µM) | > 200 | CO[C@H]1C[C@H](O[C@H]2[C@H](C)[C@@H](O[C@@H]3O[C@H](C)C[C@H](N(C)C)[C@H]3O)[C@@H](C)C[C@@H](CN=[N+]=[N-])C(=O)[C@H](C)[C@@H](O)[C@@H](C)[C@@H](C)OC(=O)[C@@H]2C)O[C@@H](C)[C@@H]1OC(C)=O [Example 9, 8,8a-Deoxy8-azidomethyl-4"-acetyloleandomycin] | protection against infection which was comparable to natural oleandomycin |
| ≤ 0.1 | > 200 | > 200 | 25 (≈ 34.2 µM) | 50 (≈ 68.4 µM) | 6.25 (≈ 8.55 µM) | > 200 | CO[C@H]1C[C@H](O[C@H]2[C@H](C)[C@@H](O[C@@H]3O[C@H](C)C[C@H](N(C)C)[C@H]3O)[C@@H](C)C[C@@H](CN)C(=O)[C@H](C)[C@@H](O)[C@@H](C)[C@@H](C)OC(=O)[C@@H]2C)O[C@@H](C)[C@@H]1OC(C)=O [Example 11, 8,8a-Deoxy-8-aminomethyl-4"-acetyloleandomycin] | – |
| ≤ 0.1 | > 200 | > 200 | 6.25 (≈ 7.99 µM) | – | 0.39 (≈ 0.499 µM) | > 200 | CO[C@H]1C[C@H](O[C@H]2[C@H](C)[C@@H](O[C@@H]3O[C@H](C)C[C@H](N(C)C)[C@H]3O)[C@@H](C)C[C@@H](Cn3ccnc3)C(=O)[C@H](C)[C@@H](O)[C@@H](C)[C@@H](C)OC(=O)[C@@H]2C)O[C@@H](C)[C@@H]1OC(C)=O [Example 24, 8,8a-deoxy-8-(imidazol-1-yl)methyl-4"-acetyloleandomycin] | protection against infection which was comparable to natural oleandomycin |
